Where a name gives a salt, the structure may show the parent alone. One block for each molecule: values may come before it.
Legend:
[1] = tested on: Escherichia coli (ATCC 25922); experiment: Confirmatory spot test with enzyme substrates; format: cell-based; design: key to Reactions in Wells Containing: MUGal (fluorescence): +: A positive reaction is shown by fluorescence of the well under long wave ultraviolet light; key to Reactions in Wells Containing: IBDG (blue color): +: A positive reaction is shown by production of a blue color in the well; conditions: 35° C., up to 24 hours
Method: (§1) One hundred microliter volumes of a bacterial suspension were placed in three wells of a sterile porcelain spot test plate or other suitable plate with wells. The bacterial suspension was obtained in one of the following ways:
(§2) 1. A loopful of bacterial growth from a slant or an isolated colony from an agar plate was emulsified in a small amount of the liquid MI broth medium without substrates or other non-selective broths.
(§3) 2. Aliquots of 100 μl of a bacterial culture grown over-night at 35° C. in a non-selective broth or the liquid medium without substrates were used.
(§4) Sixty microliters of a freshly-prepared, filter-sterilized 16 mg/ml IBDG solution was added to one well of bacterial suspension, and 300 μl of a freshly-prepared, filter-sterilized 1 mg/ml MUGal solution was added to a second well. The third well, containing only bacterial suspension (negative control), was used as a comparator to distinguish positive and negative wells. Additional wells were inoculated with uninoculated medium, IBDG, and MUGal as controls. The plates were covered with sterile foil and incubated at 35° C. for up to 24 hours. […] This test could also be performed by adding all of the test liquids and culture or sample to a piece of filter paper or to an absorbent pad and observing the reactions.

[2] = tested on: Escherichia coli (EPA 206); experiment: Confirmatory spot test with enzyme substrates; format: cell-based; design: key to Reactions in Wells Containing: MUGal (fluorescence): +: A positive reaction is shown by fluorescence of the well under long wave ultraviolet light; key to Reactions in Wells Containing: IBDG (blue color): +: A positive reaction is shown by production of a blue color in the well; conditions: 35° C., up to 24 hours
Method: as §1, §2, §3, §4

E. coli colonies = experiment: Other β-galactosidase substrates tested with IBDG in the selective base medium; format: cell-based; conditions: IBDG with each of three other β-galactosidase substrates in selective base medium
Excerpt: (§5) The selective base medium without the substrates MUGal and IBDG (with or without agar) can be used with other β-galactosidase and β-glucuronidase substrates for the detection of total coliforms and/or E. coli. For example, each of three other β-galactosidase substrates (2-Nitrophenyl-β-D-galactopyranoside, Chlorophenol Red-β-galactopyranoside, and Resorufin-β-D-Galactopyranoside) have been tested with IBDG in this lab. […] We believe other combinations of substrates in this base medium would also work in the various embodiments described in this document, and different enzyme substrates (other than β-galactosidase and β-glucuronidase substrates) for specific coliforms could be used in this base medium because of its selectivity. The following guidance is provided for choosing ingredients for the alternative embodiments.

total coliform colonies = experiment: as above; format: cell-based, total coliforms; conditions: β-galactosidase substrate tested with IBDG in selective base medium
Excerpt: as §5

[3] = tested on: Enterobacter aerogenes (EPA 202); experiment: Confirmatory spot test with enzyme substrates; format: cell-based; design: key: +: A positive reaction is shown by fluorescence of the well under long wave ultraviolet light; conditions: 35° C., up to 24 hours, UV 366 nm
Method: as §1, §2, §3, §4

[4] = tested on: Klebsiella pneumoniae (EPA 207); experiment: Confirmatory spot test with enzyme substrates; format: cell-based; design: key: +: A positive reaction is shown by fluorescence of the well under long wave ultraviolet light; conditions: 35° C., up to 24 hours, UV 366 nm
Method: as §1, §2, §3, §4

Compound: O=C(O)[C@H]1O[C@@H](Oc2c[nH]c3ccccc23)[C@H](O)[C@@H](O)[C@@H]1O [IBDG, Indoxyl-Beta-D-glucuronide, sodium salt or cyclohexylammonium salt]
Reactions in Wells Containing: IBDG (blue color) [1]: +
Reactions in Wells Containing: IBDG (blue color) [2]: +
color of the E. coli colonies (E. coli colonies): varying shades of blue

Compound: O=c1ccc2nc3ccc(O[C@@H]4O[C@H](CO)[C@H](O)[C@H](O)[C@H]4O)cc3oc-2c1 [Resorufin-β-D-Galactopyranoside]
colors of the total coliform colonies (total coliform colonies): pink-red

Reactions in Wells Containing: MUGal (fluorescence) [3]: +
Reactions in Wells Containing: MUGal (fluorescence) [4]: +
Compound: Cc1cc(=O)oc2cc(O[C@@H]3O[C@H](CO)[C@H](O)[C@H](O)[C@H]3O)ccc12 [MUGal, 4-Methylumbelliferyl-Beta-D-galactopyranoside]
Reactions in Wells Containing: MUGal (fluorescence) ([1]; UV 366 nm): +
Reactions in Wells Containing: MUGal (fluorescence) ([2]; UV 366 nm): +

Compound: O=[N+]([O-])c1ccccc1O[C@@H]1O[C@H](CO)[C@H](O)[C@H](O)[C@H]1O [2-Nitrophenyl-β-D-galactopyranoside]
colors of the total coliform colonies (total coliform colonies): yellow

Compound: O=S1(=O)OC(c2ccc(O)c(Cl)c2)(c2ccc(O[C@@H]3O[C@H](CO)[C@H](O)[C@H](O)[C@H]3O)c(Cl)c2)c2ccccc21 (stereo partly drawn) [Chlorophenol Red-β-galactopyranoside]
colors of the total coliform colonies (total coliform colonies): orchid

From patent US6670145B2, “Method for detection of total coliforms and E. coli” (The United States of America as represented by the …, priority 1991, dated 2003)
